Source: ChEMBL document CHEMBL1201862, “PubChem BioAssay data set” (2004)
Several values for one entry are separate records, joined by “and”; a condition that tells them apart may be missing. Equal entries are not always repeated.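 Values below derive from 48-hour exposures of cells grown in 96-well plates, with endpoints linearly interpolated between the two concentrations bracketing the appropriate inhibition level. GI50 is the concentration that inhibits growth by half.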 Activity calls are given as the source filed them. Cut-off read from the data, not from the text of the source: active = GI50 up to about 1.1 µM and inactive = higher.

Assays:
Assay in all cases: growth of human tumour cells (NCI), 48 h
CAKI-1 = test system: CAKI-1
DU-145 = test system: DU-145
K562 = test system: K562
LXFL 529 = test system: LXFL 529
M14 = test system: M14
MCF7 = test system: MCF7
MDA-MB-231 = test system: MDA-MB-231
MDA-N = test system: MDA-N
MOLT-4 = test system: MOLT-4
NCI-H226 = test system: NCI-H226
NCI-H23 = test system: NCI-H23
NCI-H460 = test system: NCI-H460
OVCAR-5 = test system: OVCAR-5
OVCAR-8 = test system: OVCAR-8
SF-268 = test system: SF-268
SK-OV-3 = test system: SK-OV-3
SNB-75 = test system: SNB-75
SW-620 = test system: SW-620
TK-10 = test system: TK-10
UACC-62 = test system: UACC-62

SMILES | GI50 (CAKI-1) | GI50 (DU-145) | GI50 (K562) | GI50 (LXFL 529) | GI50 (M14) | GI50 (MCF7) | GI50 (MDA-MB-231) | GI50 (MDA-N) | GI50 (MOLT-4) | GI50 (NCI-H226) | GI50 (NCI-H23) | GI50 (NCI-H460) | GI50 (OVCAR-5) | GI50 (OVCAR-8) | GI50 (SF-268) | GI50 (SK-OV-3) | GI50 (SNB-75) | GI50 (SW-620) | GI50 (TK-10) | GI50 (UACC-62)
CCC(C)C(=O)O[C@H]1C(=O)O[C@@H]2C[C@H]3C(C)=CC(=O)[C@@H](O)[C@]3(C)[C@H]3[C@@H](O)[C@H](O)[C@@]4(C)OC[C@]32[C@@H]14 (some centres undefined) | < 0.0455 µM (active) | < 0.01 µM (active) | 0.0109 µM (active) | 0.0103 µM (active) | < 0.0144 µM (active) | < 0.01 µM (active) | < 0.01 µM (active) | < 0.01 µM (active) | 0.0112 µM (active) | < 0.0157 µM (active) | < 0.01 µM (active) | < 0.0135 µM (active) | < 0.0244 µM (active) | < 0.0155 µM (active) | < 0.0164 µM (active) | 0.0832 µM (active) | < 0.0167 µM (active) | < 0.0162 µM (active) | < 0.0198 µM (active) | < 0.019 µM (active)
Clc1ccccc1C1SCc2nc3ccccc3n21 (centres undefined) | 25.4 µM (inactive) |  | 21.6 µM (inactive) | 26.4 µM (inactive) | 19.1 µM (inactive) |  |  |  | 23.6 µM (inactive) | 26.2 µM (inactive) | 25.4 µM (inactive) | 30.1 µM (inactive) | 17.6 µM (inactive) | 24.2 µM (inactive) | 37.1 µM (inactive) | 27.6 µM (inactive) | 3.97 µM (inactive) | 43.5 µM (inactive) | 23 µM (inactive) | > 10 µM (inactive)
CC(C)=CC(=O)C1c2cccc(O)c2C(=O)c2c(O)cc(C)cc21 (centres undefined) | 5.25 µM (inactive) |  | 2.65 µM (inactive) | 2.04 µM (inactive) | 3.25 µM (inactive) |  |  |  | 4.23 µM (inactive) | 2.24 µM (inactive) | 2.44 µM (inactive) | 2.32 µM (inactive) | 2.34 µM (inactive) | 2.81 µM (inactive) | 2.12 µM (inactive) | 2.81 µM (inactive) | 2.12 µM (inactive) | 3.33 µM (inactive) | 2.42 µM (inactive) | 
CCOC(=N)CC(=O)c1ccccc1 | > 100 µM (inactive) |  | > 100 µM (inactive) | > 100 µM (inactive) | > 100 µM (inactive) |  |  |  | > 100 µM (inactive) | > 100 µM (inactive) | > 100 µM (inactive) |  | > 100 µM (inactive) | > 100 µM (inactive) | > 100 µM (inactive) | > 100 µM (inactive) | > 100 µM (inactive) | > 100 µM (inactive) | > 100 µM (inactive) | > 100 µM (inactive)
C=C1C(=O)OC2/C=C(\CO)C(OC(C)=O)CC(O)/C(C)=C/C(OC(=O)C(C)CC)C12 (centres undefined) | 27.5 µM (inactive) and 24.2 µM (inactive) | 19.8 µM (inactive) |  | 13.9 µM (inactive) | 16.7 µM (inactive) and 15.8 µM (inactive) | 12.9 µM (inactive) | 17.3 µM (inactive) | 18.3 µM (inactive) |  | 29.6 µM (inactive) | 24.2 µM (inactive) and 17.2 µM (inactive) | 23.3 µM (inactive) and 38.6 µM (inactive) |  | 21.7 µM (inactive) and 17.7 µM (inactive) | 28.9 µM (inactive) and 19.7 µM (inactive) | > 100 µM (inactive) | 24.3 µM (inactive) | 11.8 µM (inactive) and 21.5 µM (inactive) | 17.6 µM (inactive) and 19.3 µM (inactive) | 19.4 µM (inactive) and 17.5 µM (inactive)
COC(=O)C(C(=O)C(=O)NC1=C(Cl)C(=O)c2ccccc2C1=O)c1csc(-n2nc(-c3ccccc3)cc2-c2ccccc2)n1 (centres undefined) | > 100 µM (inactive) |  | 20.9 µM (inactive) | > 100 µM (inactive) | > 100 µM (inactive) |  |  |  | > 100 µM (inactive) | > 100 µM (inactive) | > 100 µM (inactive) | > 100 µM (inactive) | > 100 µM (inactive) | > 100 µM (inactive) | 24.3 µM (inactive) | > 100 µM (inactive) | 1.65 µM (inactive) | > 100 µM (inactive) | > 100 µM (inactive) | 44.1 µM (inactive)
CCCCCCC(C)OC(=O)/C=C(\CC(=O)OC(C)CCCCCC)C(=O)OC(C)CCCCCC (centres undefined) | > 100 µM (inactive) |  |  | > 100 µM (inactive) | > 100 µM (inactive) |  |  |  | > 100 µM (inactive) | > 100 µM (inactive) | > 100 µM (inactive) | > 100 µM (inactive) | > 100 µM (inactive) | > 100 µM (inactive) | > 100 µM (inactive) | > 100 µM (inactive) | > 100 µM (inactive) | > 100 µM (inactive) | > 100 µM (inactive) | > 100 µM (inactive)
O=C(CCn1[nH]c(=O)c(Cl)c(Cl)c1=O)NO | > 100 µM (inactive) |  | > 100 µM (inactive) | > 100 µM (inactive) | > 100 µM (inactive) |  |  |  | > 100 µM (inactive) | > 100 µM (inactive) | > 100 µM (inactive) | > 100 µM (inactive) | > 100 µM (inactive) | > 100 µM (inactive) | > 100 µM (inactive) | > 100 µM (inactive) | > 100 µM (inactive) | > 100 µM (inactive) | > 100 µM (inactive) | > 100 µM (inactive)
COC12OCCN(CCO)C1=CC(=O)C1(C)N=NC(C)C12 (centres undefined) | > 100 µM (inactive) |  | > 100 µM (inactive) | > 100 µM (inactive) | > 100 µM (inactive) |  |  |  | > 100 µM (inactive) | > 100 µM (inactive) | > 100 µM (inactive) | > 100 µM (inactive) |  | > 100 µM (inactive) |  | > 100 µM (inactive) | > 100 µM (inactive) | > 100 µM (inactive) | > 100 µM (inactive) | > 100 µM (inactive)
COc1ccc2nc(NC(=O)C(=O)CC(=O)c3ccc(Cl)cc3)sc2c1 | 58.5 µM (inactive) |  |  | > 100 µM (inactive) | > 100 µM (inactive) |  |  |  | > 100 µM (inactive) | 96.2 µM (inactive) | > 100 µM (inactive) | > 100 µM (inactive) |  | > 100 µM (inactive) | 85.3 µM (inactive) | 34.7 µM (inactive) | 29.4 µM (inactive) | > 100 µM (inactive) | > 100 µM (inactive) | 68.7 µM (inactive)
O=C(NC(=O)c1ccccc1[N+](=O)[O-])Nc1ccc(Oc2ncc(Cl)cn2)c(C(F)(F)F)c1 | < 0.01 µM (active) | 0.0366 µM (active) | < 0.0336 µM (active) | < 0.01 µM (active) | < 0.0115 µM (active) | < 0.01 µM (active) | 0.0371 µM (active) | < 0.01 µM (active) | 0.047 µM (active) | 0.0191 µM (active) | 0.0257 µM (active) | < 0.01 µM (active) | 0.0119 µM (active) | 0.0236 µM (active) | 0.0733 µM (active) | < 0.01 µM (active) | < 0.01 µM (active) | < 0.01 µM (active) | 20.1 µM (inactive) | < 0.01 µM (active)
CSCC1CC(c2ccc(Cl)cc2)=NO1 (centres undefined) | > 100 µM (inactive) |  | > 100 µM (inactive) | > 100 µM (inactive) | > 100 µM (inactive) |  |  |  | > 100 µM (inactive) | > 100 µM (inactive) | > 100 µM (inactive) | > 100 µM (inactive) | > 100 µM (inactive) | > 100 µM (inactive) | > 100 µM (inactive) | > 100 µM (inactive) | > 100 µM (inactive) | > 100 µM (inactive) | > 100 µM (inactive) | > 100 µM (inactive)
N#Cc1ccc(Oc2ccccc2)cc1C#N | 63.4 µM (inactive) |  | 49.3 µM (inactive) | 42.6 µM (inactive) | > 100 µM (inactive) |  |  |  | 59.3 µM (inactive) | > 100 µM (inactive) | > 100 µM (inactive) | 33.1 µM (inactive) | > 100 µM (inactive) | > 100 µM (inactive) | > 100 µM (inactive) | > 100 µM (inactive) | 72.3 µM (inactive) |  | > 100 µM (inactive) | > 100 µM (inactive)
COc1ccc(NC(=O)c2cc(OC)cc(OC)c2)cc1 | 21.9 µM (inactive) |  | 4.74 µM (inactive) | 40.5 µM (inactive) | 47.3 µM (inactive) |  |  |  | 14.8 µM (inactive) | 31.7 µM (inactive) | 41.1 µM (inactive) | 9.89 µM (inactive) | > 59.8 µM (inactive) | 80.5 µM (inactive) | 36.7 µM (inactive) | 31.4 µM (inactive) | 27.9 µM (inactive) | 7.01 µM (inactive) | 43.7 µM (inactive) | 11.3 µM (inactive)
Cc1cc(C(=C2C=CC(=N)C=C2)c2ccc(N)cc2)ccc1N [FUCHSIN, BASIC] | 11.9 µM (inactive) | 5.4 µM (inactive) | 2.79 µM (inactive) | 1.03 µM (active) | 4.23 µM (inactive) | 3.13 µM (inactive) | 6.3 µM (inactive) | 4.72 µM (inactive) | 5.51 µM (inactive) | 3.19 µM (inactive) | 2.98 µM (inactive) | 2.52 µM (inactive) | 11.4 µM (inactive) | 1.35 µM (inactive) | 0.556 µM (active) | 3.58 µM (inactive) |  | 3.67 µM (inactive) | 8.97 µM (inactive) | 4.45 µM (inactive)
